Laboratory results from patent US20220312767A1, “PYRIDAZINE COMPOUNDS AND HERBICIDES” (Nippon Soda Co., Ltd., priority 2019, published 2022).

Experiments:
Digitaria ciliaris [1] = assay: Soil treatment test (Test Example 2); type: in vivo; conditions: four weeks after
Method: (§1) A test emulsion was prepared by the same method as that in Test example 1.
(§2) 70 cm^2 pots were filled with soil, and then seeds of Digitaria ciliaris and Amaranthus retroflexus were sown on the surface layer of each of the pots, respectively, followed by lightly covering with soil. On the next day, the above-mentioned test emulsion was diluted to obtain a predetermined active ingredient amount, and then was sprayed onto the soil surface at a spray volume of 2860 L per hectare using a small sprayer.
(§3) Four weeks after, the fresh grass mass at an aerial part on an untreated area or a treated area was measured per weed, and the herbicidal ratio was calculated by the following calculation formula.
(§4) Herbicidal ratio (%)=(the fresh grass mass at an aerial part on untreated area−the fresh grass mass at an aerial part on treated area)/(the fresh grass mass at an aerial part on untreated area)×100
(§5) The compounds A-1 and A-4 were sprayed at a spray amount of 63 g or 31 g per hectare, respectively.
(§6) In addition, the following compounds (A) to (C) disclosed in Patent Document 1 were sprayed in a similar manner.

Amaranthus retroflexus [2] = assay: Soil treatment test (Test Example 2); type: in vivo; conditions: four weeks after
Method: as §1, §2, §3, §4, §5, §6

Avena sativa = assay: Foliage treatment test (Test Example 1), foliage spray; type: in vivo; conditions: 250 g per hectare, three weeks after, fresh grass mass of aerial part vs untreated
Method: (§7) POA allylphenyl ether (4.1 parts by mass), POE-POP glycol (1 part by mass), POE sorbitanlaurate (0.8 parts by mass), glycerin (2.6 parts by mass), dimethylformamide (65.9 parts by mass), N-methylpyrolidone (5.1 parts by mass), cyclohexanone (15.4 parts by mass), and aromatic hydrocarbon (5.1 parts by mass) were mixed and dissolved to prepare an emulsion. The compound according to the present invention (4 mg) was dissolved in the emulsion (100 μL) to prepare a test emulsion. The term “POA” means “polyoxyalkylene”, the term “POE” means “polyoxyethylene”, and the term “POP” means “polyoxypropylene”.
(§8) 150 cm^2 pots were filled with soil, and then seeds of Avena sativa, Matricaria chamomilla, Setaria faberi, Digitaria ciliaris, Abutilon theophrasti and Amaranthus retroflexus were sown on the surface layer of each of the pots, respectively, followed by lightly covering with soil. Then, the seeds were grown in a greenhouse. When each plant was grown to obtain a grass height of 2 cm to 4 cm, the above-mentioned test emulsion diluted to obtain a predetermined active ingredient amount was sprayed onto the leaves and stems at a spray volume of 250 L per hectare using a small sprayer.
(§9) Three weeks after, the fresh grass mass at an aerial part on an untreated area or a treated area was measured per weed, and the herbicidal ratio was calculated by the following calculation formula.
as §4

Matricaria chamomilla = assay: as above; type: in vivo; conditions: 250 g per hectare, three weeks after, fresh grass mass of aerial part vs untreated
Method: as §7, §8, §9, §4

Setaria faberi = assay: as above; type: in vivo; conditions: 250 g per hectare, three weeks after, fresh grass mass of aerial part vs untreated
Method: as §7, §8, §9, §4

Digitaria ciliaris [3] = assay: as above; type: in vivo; conditions: 250 g per hectare, three weeks after, fresh grass mass of aerial part vs untreated
Method: as §7, §8, §9, §4

Amaranthus retroflexus [4] = assay: as above; type: in vivo; conditions: 250 g per hectare, three weeks after, fresh grass mass of aerial part vs untreated
Method: as §7, §8, §9, §4

SMILES | Herbicidal ratio Digitaria ciliaris (Digitaria ciliaris [1]; spray amount 31 g/ha) | Herbicidal ratio Digitaria ciliaris (Digitaria ciliaris [1]; spray amount 63 g/ha) | Herbicidal ratio Amaranthus retroflexus (Amaranthus retroflexus [2]; spray amount 31 g/ha) | Herbicidal ratio Amaranthus retroflexus (Amaranthus retroflexus [2]; spray amount 63 g/ha) | Herbicidal ratio against Avena sativa (Avena sativa) | Herbicidal ratio against Matricaria chamomilla (Matricaria chamomilla) | Herbicidal ratio against Setaria faberi (Setaria faberi) | Herbicidal ratio against Digitaria ciliaris (Digitaria ciliaris [3]) | Herbicidal ratio against Amaranthus retroflexus (Amaranthus retroflexus [4]) | melting point
Cc1ccc(S(=O)(=O)Oc2c(-c3ccc(C(F)(F)F)cc3S(C)(=O)=O)cnn(C)c2=O)cc1 [(C)] | 40% | 70% | 0% | 0% | – | – | – | – | – | –
COC(=O)OC(C)Oc1c(-c2ccc(S(C)(=O)=O)cc2Cl)cnn(C)c1=O (stereo not shown) [Compound A-2] | – | – | – | – | 100% | 100% | – | – | – | –
Cn1ncc(-c2ccc(C(F)(F)F)cc2S(C)(=O)=O)c(O)c1=O [(A)] | 0% | 0% | 0% | 0% | – | – | – | – | – | –
CC(OC(=O)C(C)C)Oc1c(-c2ccc(C(F)(F)F)cc2S(C)(=O)=O)cnn(C)c1=O (stereo not shown) [Compound A-1] | 100% | 100% | 100% | 100% | 100% | 100% | 100% | 100% | 100% | –
CC(=O)Oc1c(-c2ccc(C(F)(F)F)cc2S(C)(=O)=O)cnn(C)c1=O [(B)] | 0% | 30% | 0% | 0% | – | – | – | – | – | –
COCCOc1c(S(C)(=O)=O)ccc(-c2cnn(C)c(=O)c2OC(C)OC(=O)OC)c1Cl (stereo not shown) [Compound A-8] | – | – | – | – | – | 100% | – | 100% | 100% | –
COC(=O)OCOc1c(-c2ccc(C(F)(F)F)cc2S(C)(=O)=O)cnn(C)c1=O [Compound A-3] | – | – | – | – | 100% | 100% | 100% | 100% | 100% | –
CC(C)C(=O)OCOc1c(-c2ccc(C(F)(F)F)cc2S(C)(=O)=O)cnn(C)c1=O [Compound A-5] | – | – | – | – | 100% | 100% | 100% | 100% | 100% | –
COC(=O)OC(C)Oc1c(-c2ccc(C(F)(F)F)cc2S(C)(=O)=O)cnn(C)c1=O (stereo not shown) [Compound A-4, methyl (1-((2-methyl-5-(2-(methylsulfonyl)-4-(trifluoromethyl)phenyl)-3-oxo-2,3-dihydropyridazin-4-yl)oxy)ethyl) carbonate] | – | 100% | – | 100% | 100% | 100% | – | 100% | 100% | 173 to 176 °C
COC(=O)OC(C)Oc1c(-c2ccc(S(C)(=O)=O)c(C3=NOCC3)c2Cl)cnn(C)c1=O (stereo not shown) [Compound A-7] | – | – | – | – | 100% | 100% | 100% | 100% | 100% | –
COC(=O)OC(C)Oc1c(-c2ccc(C(F)(F)F)c(NC(=O)C3CC3)c2C)cnn(C)c1=O (stereo not shown) [Compound A-9] | – | – | – | – | 100% | 100% | 100% | – | 100% | –
